In US20090156480A1, “Biodegradable nanoparticle having t-cell recognizable epitope peptide immobilized thereon or encapsulated therein” (priority 2005, published 2009):

Key:
Assay type in all cases: in vivo, BALB/c mice
[1] = test system: draining lymph node cells; assay: Immunization potential: lymph node cell proliferation ([3H]thymidine intake) after subcutaneous footpad injection; settings: s.c. footpads, nanoparticles corresponding to 20 μg peptide, FIG. 1; for cell proliferation response (thymidine intake) to the injected T cell recognizable epitope peptide: day 11 lymph node cells stimulated with P1 or P2 20 μg/ml; for cell proliferation response (thymidine intake) to SBP: day 11 lymph node cells stimulated with SBP 10 μg/ml
Description: (§1) Subcutaneously injected into the footpads of BALB/c mice (6-week-old male) was 100 μl (50 μl for each footpad) of a suspension of biodegradable nanoparticles having immobilized thereon Cryj1 or Cryj2 T cell recognizable epitope peptide (P1 or P2) (the amount of nanoparticles corresponding to 20 μg of the peptide) or nanoparticles having no peptide immobilized thereon. On day 11, a draining lymph node was removed to collect lymph node cells, which were then suspended in a mixture of RPM 11640 medium and 10% fetal calf serum (FCS). Such cells from two mice were combined together for use in each group. The cells were placed onto a 96-well incubation plate in an amount of 5×10^5 in each well. Further placed into each well as an antigen stimulus was P1 or P2 to a final concentration of 20 μg/ml or a cedar pollen roughly purified antigen (Sugi Basic Protein, SBP, Asahi Food and Health Care Co., Ltd.) in an amount of 10 μg/ml. Half of the mixture to be incubated was replaced by a fresh mixture to be incubated and containing [^3H] tritium-thymidine (0.5 μCi) 48 hours after the start of incubation. The cells were then collected onto a glass filter 16 hours thereafter by a cell harvester, and the [^3H] tritium intake (thymidine intake) was measured by a liquid scintillation counter for the evaluation of cell proliferation. The SBP mentioned above is an allergen containing both Cryj1 and Cryj2.

interleukin-5 = assay: Ocular (conjunctival) administration: interleukin-5 production by sandwich ELISA; settings: 5 μg peptide eight times, supernatant 64 hours, SBP 10 μg/ml, versus ocularly untreated mice, FIG. 3
Description: (§2) Mucosal administration of antigens is thought promising in immunotherapy, and the conjunctiva is considered to be one of the routes of administration (J. Immunol. 2000, 164: 4543-4550). Biodegradable nanoparticles having immobilized thereon T cell recognizable epitope peptide were ocularly-instilled to investigate the influence on the response to the subsequent antigen sensitization. A saline solution of Cryj2 T cell recognizable epitope peptide (P2) (5 μg of the peptide) or a suspension of P2 immobilized nanoparticles (corresponding to 5 μg of the peptide) administered dropwise, in an amount of 10 μl, to the conjunctivas of the eyes of BALB/c mice (7-week-old male) eight times (on days 1-4 and days 6-9). On day 16, a suspension of 5 μg of cedar pollen roughly purified antigen SBP in Freund's incomplete adjuvant was injected for antigen sensitization into the right footpads to give rise to an immune response. […] The proliferation of cells was measured by the same method as described in Example 2. For the measurement of cytokine production, the supernatant was collected 64 hours after the start of incubation to quantitatively determine interleukin-5 and interferon-γ by sandwich ELISA using Bio-Plex cytokine assay system (product of Bio-Rad).

interferon-γ = assay: Ocular (conjunctival) administration: interferon-γ production by sandwich ELISA; settings: 5 μg peptide eight times, supernatant 64 hours, SBP 10 μg/ml, versus ocularly untreated mice, FIG. 3
Description: as §2

[2] = test system: draining lymph node cells; assay: Ocular (conjunctival) administration, SBP sensitization: cell proliferation (thymidine intake) on SBP stimulation; settings: 5 μg peptide eight times, SBP sensitization day 16, SBP 10 μg/ml, versus ocularly untreated mice, FIG. 3
Description: as §1, with “Further placed into each well as an antigen stimulus was P1 or P2 to a final concentration of 20 μg/ml or a cedar pollen roughly purified antigen (Sugi Basic Protein, SBP, Asahi Food and Health Care Co., Ltd.) in an amount of 10 μg/ml. Half of the mixture to be incubated was replaced by a fresh mixture to be incubated and containing [^3H] tritium-thymidine (0.5 μCi) 48 hours after the start of incubation.” left out, “The SBP mentioned above is an allergen containing both Cryj1 and Cryj2.” left out
Mucosal administration of antigens is thought promising in immunotherapy, and the conjunctiva is considered to be one of the routes of administration (J. Immunol. 2000, 164: 4543-4550). […] The proliferation of cells was measured by the same method as described in Example 2. […]

Q: For “KQVTIRIGCKTSSS [P1, in b77 the label stands for the P1-immobilized nanoparticles injected]”, which “cell proliferation response (thymidine intake) to the injected T cell recognizable epitope peptide” value [1] is on record?
A: The value was “specific cell proliferation response was observed”.

Q: What about the “cell proliferation response (thymidine intake) to SBP” value [1] of the same sequence?
A: The value was “observed was a response to the SBP”.

Q: Which results are given for RAEVSYVHVNGAKF [P2 alone]?
A: production of interleukin-5 (Th2 cytokine) (interleukin-5): reduced to nearly the same extent; production of interferon-γ (Th1 cytokine) (interferon-γ): lower; cell proliferation response (thymidine intake) to the injected T cell recognizable epitope peptide [1]: specific cell proliferation response was observed; cell proliferation response (thymidine intake) to SBP [1]: observed was a response to the SBP; cell proliferation response (thymidine intake) to the stimulation with the antigen [2]: lower
